Results reported in patent US10179770B2, “Quinolines derivatives as novel anticancer agents” (GENOSCIENCE PHARMA, priority 2013, dated 2019).

Columns and labels:
KG-1 = assay: CellTiter-Glo cell viability assay (example 57); assay type: cell-based; conditions: Homo sapiens; KG-1 (Leukemia); Cell Titer-Glo; 72 h
Description: (§1) The human breast cancer cell line SkBr3 and the human metastatic prostate carcinoma cell line LnCAP were cultured in Dulbecco's modified Eagle's medium (DMEM) supplemented with 10% fetal bovine serum (FBS) and 0.1% sodium pyruvate. The human myelocytic cell line U937 and NB4 were maintained in RPMI medium 1640 1× (Gibco 21875-034) supplemented with 10 % Fetal Bovine Serum (FBS, Eurobio S39130-0808) Kasumi and SKM-1 were maintained in RPMI medium 1640 1× (Gibco 21875-034) supplemented with 20 % Fetal Bovine Serum (FBS, Eurobio S39130-0808), HL60 was maintained in Iscove's modified Dulbecco's medium 1× (IMDM, Gibco 21890) supplemented with 20% Fetal Bovine Serum (FBS, Eurobio S39130-0808), cell line was maintained in MEM alpha medium (Gibco 22561-021) supplemented with 10% FBS at 37° C. with 5% CO2. Cell outgrowth was measured using the CellTiter-Glo luminescent cell viability assay as described by the manufacturer (Promega, Ref G7571 Madison, Wis., USA) using a FLUOstar optima luminometer (BMG Labtech, Ortenberg, Germany).
(§2) Briefly, for adherent cells, 10^4 cells were plated onto 96-well plates (white with clear bottom (3610, Corning Costar) in 100 μL of media per well and were allowed to grow overnight before the assay. For cells growing in suspension, 10^4 cells were plated onto 96-well plates immediately before the assay. […] Vehicle (DMSO) was used as a control, and all compounds were tested in a constant percentage of DMSO (1%). After addition of 50 μL of CellTiter GLO, luminescence was measured using a Centro luminometer (Berthold). EC50 values were determined as the dose of compound required to reduce luminescent values to 50% of the signal obtained for untreated cell cultures. All experiments were done in duplicate and repeated two independent times.

MOLM-14 = assay: CellTiter-Glo cell viability assay (example 57); assay type: cell-based; conditions: Homo sapiens; MOLM-14 (Leukemia); Cell Titer-Glo; 72 h
Description: as §1, §2

Kasumi-1 = assay: CellTiter-Glo cell viability assay (example 57); assay type: cell-based; conditions: Homo sapiens; Kasumi-1 (Leukemia); Cell Titer-Glo; 72 h
Description: as §1, §2

SKM-1 = assay: CellTiter-Glo cell viability assay (example 57); assay type: cell-based; conditions: Homo sapiens; SKM-1 (Leukemia); Cell Titer-Glo; 72 h
Description: as §1, §2

U937 = assay: CellTiter-Glo cell viability assay (example 57); assay type: cell-based; conditions: Homo sapiens, U-937; U937 (Leukemia); Cell Titer-Glo; 72 h
Description: as §1, §2

NB4 = assay: CellTiter-Glo cell viability assay (example 57); assay type: cell-based; conditions: Homo sapiens, NB-4; NB4 (Leukemia); Cell Titer-Glo; 72 h
Description: as §1, §2

HL60 = assay: CellTiter-Glo cell viability assay (example 57); assay type: cell-based; conditions: Homo sapiens, HL-60; HL60 (Leukemia); Cell Titer-Glo; 72 h
Description: as §1, §2

[1] = tested on: ALDH+ cancer stem cells (CSC) in MOLM-14 cell line; assay: Aldefluor kit assay, ALDH+ compartment analysis; assay type: cell-based, human; conditions: for Aldefluor™ positive CSCs (% of control): 72 h; for Aldefluor positive CSCs (% of control): MOLM-14 cell line, 72 h incubation
From the text: Analysis of the of aldehyde dehydrogenase (ALDH) compartment and high activity level of aldehyde dehydrogenase activity (ALDH+) was used to detect tumor initiating cells (cancer stem cells, CSC) population. The Aldefluor™ kit assay (StemCell Technologies) allowed to assess the activity of drugs on CSC cells like in aa MOLM-14 acute myeloid leukemia cell line population. The Aldefluor™ kit assay was used according to the procedure described by the manufacturer. Briefly, MOLM-14 cell line was cultured in RPMI-1640 Medium supplemented with 10% v/v Fetal Bovine Serum (FBS), 1% Penicillin-Streptomycin and maintained at 37° C. with 5% CO2. 5·10^5 cells were used in this assay. Each compound was added at different concentrations (see table 13 and 14), and cell cultures were incubated for 72 h. Vehicle (H2O) was used as a control, and all compounds were tested in a constant percentage of vehicle. Cells obtained from cell culture were incubated for 45 minutes at 37° C. with Aldefluor™ buffer assay containing the Bodipy™-aminoacetaldehyde (BAAA), a fluorescent ALDH aldehyde substrate. ALDH converts the fluorescent substrate BAAA to the Bodipy™-aminoacetic acid (BAA) which is retained in the cell. An active efflux inhibitor is present in the Adelfluor™ assay buffer in order to avoid the active efflux from the cell of the substrate product ALDH dependent converted BAA. The fluorescent signal is directly proportional to the ALDH activity in the cells and is measured by flow cytometry. A negative control is used to measure the background fluorescence level. For such purpose, 4-(N,N-diethylamino)-benzaldehyde (DEAB) was used as selective ALDH inhibitor. A viability cell count was performed using LIVE/DEAD® Fixable Far Red Dead Cell Stain Kit (Invitrogen). The experimental data are analyzed using a computer program, Graphpad Prism (GraphPad Software, Inc. La Jolla, Calif.) and EC50 values were determined as the dose of compound required to reduce absorbance values to 50% of the signal obtained for vehicle treated cell cultures.

MOLM-14 cell line = assay: Growth inhibition assay of MOLM-14 (CellTiter-Glo, example 63); assay type: cell-based; conditions: Homo sapiens, 48 h, method of example 63
Description: MOLM-14 cell line was cultured in RPMI-1640 Medium supplemented with 10% v/v Fetal Bovine Serum (FBS), 1% Penicillin-Streptomycin and maintained at 37° C. with 5% CO2. 10,000 cells were plated onto 96-well plates immediately before the assay.
Each compound was added at different concentrations (combinations of six concentrations) to each well, and cell cultures were incubated for 48 h. Vehicle (H2O) was used as a control, and all compounds were tested in a constant percentage of vehicle. Cell outgrowth was measured using the CellTiter-Glo luminescent cell viability assay as described by the manufacturer (Promega, Ref G7571 Madison, Wis., USA) using a Centro (Berthold, France) plate reader.
In each experiment, each point represents the average of triplicates in cell culture.
The experimental data are analyzed using a computer program, Graphpad Prism (GraphPad Software, Inc. La Jolla, Calif.) and EC50 values were determined as the dose of compound required to reduce absorbance values to 50% of the signal obtained for vehicle treated cell cultures.

SkBr3 = assay: CellTiter-Glo cell viability assay (example 57); assay type: cell-based; conditions: Homo sapiens, SK-BR-3; SkBr3 (Breast); Cell Titer-Glo; 72 h
Description: as §1, §2

LNCaP = assay: CellTiter-Glo cell viability assay (example 57); assay type: cell-based; conditions: Homo sapiens; LNCaP (Prostate); Cell Titer-Glo; 72 h
Description: as §1, §2

HepG2 = assay: CellTiter-Glo cell viability assay (example 57); assay type: cell-based; conditions: Homo sapiens; HepG2 (Liver); Cell Titer-Glo; 72 h
Description: as §1, §2

HT29 = assay: CellTiter-Glo cell viability assay (example 57); assay type: cell-based; conditions: Homo sapiens, HT-29; HT29 (Colon); Cell Titer-Glo; 72 h
BxPC-3 = assay: Cell viability assay, pancreatic cancer cell lines; assay type: cell-based; conditions: Homo sapiens; BxPC-3 (Pancreas); 48 h
Description: (§3) MiaPaCa-2, Panc-1 cells were grown in Dulbecco's modified eagle's medium (DMEM) (Gibco) supplemented with 10% fetal bovine serum (FBS), while BxPC-3, Capan-1, Capan-2 cells were grown in Roswell Park Memorial Institute 1640 (RPMI 1640) (Gibco) supplemented with 10% FBS. Gemcitabine (Gemzar) was purchased from Lilly France S.A.S (Suresnes, France). (3-(4,5-dimethylthiazol-2-yl)-2,5diphenyltetrazolium bromide, MTT) was purchased from Sigma-Aldrich.
(§4) BxPC-3, MiaPaCa-2, Panc-1 cells were seeded into a 96-well plate at 10,000 10,000 15,000 cells per well respectively, while Capan-1 and Capan-2 cells at 20,000 cells per well and allowed to adhere overnight. Then the culture medium was removed and replaced with fresh media alone as control or containing various concentrations of different compounds. In dose-dependent assay, the cells were treated with compound XIX-3 at the concentration varying from 0.1 μM to 100 μM while the cells being cultured by fresh media alone were used as control. After 48 h treatment, the number of remained viable cells was determined by (3-(4,5-dimethylthiazol-2-yl)-2,5diphenyltetrazolium bromide, MTT) colorimetric assay (see Sigma Aldrich protocol and Riss T. L. et al. Cell Viability Assays in Assay Guidance Manual 2013 ppl.). All experiments were done in duplicate and repeated two independent times.

U87-MG = assay: CellTiter 96 Aqueous One Solution (MTS) cell proliferation assay; assay type: cell-based; conditions: Homo sapiens, U-87 MG; U87-MG (Glioma); Cell Titer 96 Aqueous One Solution; 72 h; mean of seven independent triplicate assays
Description: The human glioblastoma cell line U87-MG was cultured in Minimum Essential Medium (Life Invitrogen, 31095029) supplemented with 10% fetal bovine serum (GIBCO, 10500-056) and 1 % penicillin-streptomycin (GIBCO, 15140-122). Flasks and plated used for the cell culture were coated with 25 μg/mL poly-D-lysine (Sigma, P7280).
Cell outgrowth was measured using a tetrazolium compound (3-[4,5-dimethylthiazol-2-yl]-5-[3-carboxymethoxyphenyl]-2-[4-sulfophenyl]-2H tetrazolium, inner salt [MTS]) from the CellTiter 96® Aqueous One Solution Cell Proliferation Assay (Promega, Ref G3580) and according to the manufacturer procedure.
5000 cells were plated onto 96-well plates in 100 μL of media per well and were allowed to grow overnight before the assay. Compounds were added at different concentrations to each well, and cell cultures were incubated for 72 h. Control compound was the diluent used for compound resuspension (H2O). After addition of 20 μL of CellTiter 96® Aqueous One Solution, absorbance at 492 nm was measured using a microplate reader Sunrise (Tecan). EC50 values were determined as the dose of compound required to reduce […] values to 50% of the signal obtained for untreated cell cultures. […] The experimental data are analyzed using a computer program, Graphpad Prism (GraphPad Software, Inc. La Jolla, Calif.).

B16F10 = assay: CellTiter-Glo cell viability assay (example 57); assay type: cell-based, human; conditions: Mus musculus, B16-F10; B16F10 (Melanoma); Cell Titer-Glo; 72 h
MIA PaCa-2 = assay: Cell viability assay, pancreatic cancer cell lines; assay type: cell-based; conditions: Homo sapiens; MIA PaCa-2 (Pancreas); 48 h
Description: as §3, §4

Capan-1 = assay: Cell viability assay, pancreatic cancer cell lines; assay type: cell-based; conditions: Homo sapiens; Capan-1 (Pancreas); 48 h
Description: as §3, §4

Capan-2 = assay: Cell viability assay, pancreatic cancer cell lines; assay type: cell-based; conditions: Homo sapiens; Capan-2 (Pancreas); 48 h
Description: as §3, §4

Panc-1 = assay: Cell viability assay, pancreatic cancer cell lines; assay type: cell-based; conditions: Homo sapiens; Panc-1 (Pancreas); 48 h
Description: as §3, §4

Row | EC50 (MOLM-14) [µM] | EC50 (SKM-1) [µM] | EC50 (U937) [µM] | EC50 (HL60) [µM] | EC50 (LNCaP) [µM] | EC50 (HepG2) [µM] | EC50 (HT29) [µM] | EC50 (BxPC-3) [µM] | Compound | EC50 (KG-1) [µM] | EC50 (Kasumi-1) [µM] | EC50 (NB4) [µM] | EC50 (SkBr3) [µM] | also measured
1 | 3 | 2 | 0.03 | 2 |  |  |  |  | Nc1ccn([C@@H]2O[C@H](CO)[C@@H](O)[C@@H]2O)c(=O)n1 [Cytarabine] | 0.15 | 0.15 | 0.02 |  | Aldefluor™ positive CSCs (% of control) ([1]; MOLM-14, 1 μM): 130 % of control; Aldefluor™ positive CSCs (% of control) ([1]; MOLM-14, 3 μM): 116 % of control; Activity against CSCs in Aldefluor™ assay (proportion of CSCs) ([1]; MOLM-14, dose dependent, Cytarabine up to 3-fold its EC50): not active against CSCs; Aldefluor positive CSCs (% of control) ([1]; 1 μM): 130 % of control; Aldefluor positive CSCs (% of control) ([1]; 3 μM): 116 % of control; EC50 (MOLM-14 cell line): 1 µM
2 |  |  |  |  | 0.04 | 0.02 | 0.2 | 0.02 | Nc1ccn([C@@H]2O[C@H](CO)[C@@H](O)C2(F)F)c(=O)n1 [Gemcitabine, gemcitabine] |  |  |  | 0.2 | 
3 | 50 | 70 | 60 | 40 | 25 | 20 | 20 | 53 | CCN(CCO)CCCC(C)Nc1ccnc2cc(Cl)ccc12 (stereo not drawn) [HCQ, hydroxychloroquine] | 60 | 20 | 57 | 20 | EC50 (U87-MG): 55 µM; EC50 (B16F10): 20 µM; EC50 (MIA PaCa-2): 47 µM; EC50 (Capan-1): 41 µM; EC50 (Capan-2): 47 µM; EC50 (Panc-1): 57 µM
